In PubChem BioAssay AID1963977 (Molecular Pharmacology Branch, DTP, NCI, 2024):

System: 624824-186-R-J3-PDC multicell spheroids, viability
Assay: Anticancer human tumor 624824-186-R-J3-PDC patient-derived colon adenocarcinoma cell line growth inhibition [PI3K]
Settings: for IC50: curve of first compound; for viability, T/C: stronger effect = lower value
Procedure, shortened: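 Multi-cell spheroids combine tumor cells with HUVEC and human MSCs, treated with targeted agents alone or with inavolisib, alpelisib, duvelisib or copanlisib. Concentrations fall in half-log steps from at or near clinical Cmax, or from 10 microM where Cmax is unknown; viability read-out.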

[1] = second compound 0.0316 µM, first compound 0.0316 µM
[2] = second compound 0.0316 µM, first compound 0.1 µM
[3] = second compound 0.0316 µM, first compound 0.316 µM
[4] = second compound 0.0316 µM, first compound 1 µM
[5] = second compound 0.0316 µM, first compound 3.16 µM
[6] = second compound 0.0316 µM, first compound 10 µM
[7] = second compound 0.1 µM, first compound 0.0316 µM
[8] = second compound 0.1 µM, first compound 0.1 µM
[9] = second compound 0.1 µM, first compound 0.316 µM
[10] = second compound 0.1 µM, first compound 1 µM
[11] = second compound 0.1 µM, first compound 3.16 µM
[12] = second compound 0.1 µM, first compound 10 µM
[13] = second compound 0.316 µM, first compound 0.0316 µM
[14] = second compound 0.316 µM, first compound 0.1 µM
[15] = second compound 0.316 µM, first compound 0.316 µM
[16] = second compound 0.316 µM, first compound 1 µM
[17] = second compound 0.316 µM, first compound 3.16 µM
[18] = second compound 0.316 µM, first compound 10 µM
[19] = second compound 1 µM, first compound 0.0316 µM
[20] = second compound 1 µM, first compound 0.1 µM
[21] = second compound 1 µM, first compound 0.316 µM
[22] = second compound 1 µM, first compound 1 µM
[23] = second compound 1 µM, first compound 3.16 µM
[24] = second compound 1 µM, first compound 10 µM
[25] = second compound 3.16 µM, first compound 0.0316 µM
[26] = second compound 3.16 µM, first compound 0.1 µM
[27] = second compound 3.16 µM, first compound 0.316 µM
[28] = second compound 3.16 µM, first compound 1 µM
[29] = second compound 3.16 µM, first compound 3.16 µM
[30] = second compound 3.16 µM, first compound 10 µM
[31] = second compound 10 µM, first compound 0.0316 µM
[32] = second compound 10 µM, first compound 0.1 µM
[33] = second compound 10 µM, first compound 0.316 µM
[34] = second compound 10 µM, first compound 1 µM
[35] = second compound 10 µM, first compound 3.16 µM
[36] = second compound 10 µM, first compound 10 µM
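Further: spheroids exposed to agents for seven days before luminescence read.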
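Wherever viability, T/C is given: luminescent signal used as a stand-in for spheroid viability; percent viability relative to DMSO vehicle control wells taken as 100%.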

Question: Which results are given for `C[C@@H](NC(=O)c1ncnc(N)c1Cl)c1ncc(C(=O)Nc2cc(C(F)(F)F)c(Cl)cn2)s1` + Cc1nc(NC(=O)N2CCCC2C(N)=O)sc1-c1ccnc(C(C)(C)C(F)(F)F)c1?
Answer: IC50 (second compound 0.0316 µM): > 10 µM; IC50 (second compound 0.1 µM): > 10 µM; IC50 (second compound 0.316 µM): > 10 µM; IC50 (second compound 1 µM): > 10 µM; IC50 (second compound 3.16 µM): 4.57 µM; IC50 (second compound 10 µM): 0.66 µM; viability, T/C [1]: 108%; viability, T/C [2]: 99.1%; viability, T/C [3]: 102%; viability, T/C [4]: 97%; viability, T/C [5]: 98.8%; viability, T/C [6]: 103%; viability, T/C [7]: 111%; viability, T/C [8]: 106%; viability, T/C [9]: 98.6%; viability, T/C [10]: 103%; viability, T/C [11]: 109%; viability, T/C [12]: 91%; viability, T/C [13]: 101%; viability, T/C [14]: 114%; viability, T/C [15]: 99%; viability, T/C [16]: 98.6%; viability, T/C [17]: 106%; viability, T/C [18]: 72.6%; viability, T/C [19]: 104%; viability, T/C [20]: 110%; viability, T/C [21]: 99.1%; viability, T/C [22]: 97.8%; viability, T/C [23]: 86.5%; viability, T/C [24]: 52.4%; viability, T/C [25]: 91.5%; viability, T/C [26]: 85.5%; viability, T/C [27]: 82.7%; viability, T/C [28]: 75.8%; viability, T/C [29]: 59.1%; viability, T/C [30]: 30.7%; viability, T/C [31]: 74.1%; viability, T/C [32]: 76.4%; viability, T/C [33]: 56%; viability, T/C [34]: 46.2%; viability, T/C [35]: 29.6%; viability, T/C [36]: 21.5%

Question: With `CNC(=O)c1ccc(N2C(=S)N(c3ccc(C#N)c(C(F)(F)F)c3)C(=O)C2(C)C)cc1F` + Cc1nc(NC(=O)N2CCCC2C(N)=O)sc1-c1ccnc(C(C)(C)C(F)(F)F)c1 as the compound, how does the IC50 (second compound 0.0316 µM) read?
Answer: > 10 µM

Question: What about the IC50 (second compound 0.1 µM) of the same compound?
Answer: > 10 µM

Question: And the IC50 (second compound 0.316 µM)?
Answer: > 10 µM

Question: And the IC50 (second compound 1 µM)?
Answer: > 10 µM

Question: What about the IC50 (second compound 3.16 µM) of the same compound?
Answer: > 10 µM

Question: What about the IC50 (second compound 10 µM) of the same compound?
Answer: > 10 µM

Question: And the viability, T/C [1]?
Answer: 104%

Question: And the viability, T/C [2]?
Answer: 94.4%

Question: What about the viability, T/C [3] of the same compound?
Answer: 101%

Question: And the viability, T/C [4]?
Answer: 102%

Question: What about the viability, T/C [5] of the same compound?
Answer: 107%

Question: And the viability, T/C [6]?
Answer: 113%

Question: And the viability, T/C [7]?
Answer: 96.9%

Question: And the viability, T/C [8]?
Answer: 100%

Question: What about the viability, T/C [9] of the same compound?
Answer: 109%

Question: What about the viability, T/C [10] of the same compound?
Answer: 98.4%

Question: What about the viability, T/C [11] of the same compound?
Answer: 104%

Question: What about the viability, T/C [12] of the same compound?
Answer: 104%

Question: And the viability, T/C [13]?
Answer: 107%

Question: And the viability, T/C [14]?
Answer: 101%

Question: And the viability, T/C [15]?
Answer: 117%

Question: What about the viability, T/C [16] of the same compound?
Answer: 99.1%

Question: What about the viability, T/C [17] of the same compound?
Answer: 113%

Question: What about the viability, T/C [18] of the same compound?
Answer: 93%

Question: And the viability, T/C [19]?
Answer: 100%

Question: And the viability, T/C [20]?
Answer: 96.3%

Question: What about the viability, T/C [21] of the same compound?
Answer: 105%

Question: And the viability, T/C [22]?
Answer: 101%

Question: What about the viability, T/C [23] of the same compound?
Answer: 104%

Question: What about the viability, T/C [24] of the same compound?
Answer: 95%

Question: What about the viability, T/C [25] of the same compound?
Answer: 91.1%

Question: What about the viability, T/C [26] of the same compound?
Answer: 89.4%

Question: What about the viability, T/C [27] of the same compound?
Answer: 83.9%

Question: And the viability, T/C [28]?
Answer: 77.7%

Question: What about the viability, T/C [29] of the same compound?
Answer: 88%

Question: And the viability, T/C [30]?
Answer: 85.5%

Question: And the viability, T/C [31]?
Answer: 74.3%

Question: What about the viability, T/C [32] of the same compound?
Answer: 65.3%

Question: What about the viability, T/C [33] of the same compound?
Answer: 69.4%

Question: What about the viability, T/C [34] of the same compound?
Answer: 67.8%

Question: What about the viability, T/C [35] of the same compound?
Answer: 73.8%

Question: And the viability, T/C [36]?
Answer: 70.1%
